The text below walks through data of article PMC2504292 (Nucleic Acids Research, 2008).

One may read the Kd as the constant that tells how readily two partners part at equilibrium. Low values mean a tighter complex, high ones a looser complex.

Data set [1] addresses T1, PARN RRM (cap-binding domain of mouse PARN, residues 430-516) (Mus musculus, UniProt Q8VDG3).
T1 sequence (Q8VDG3 430-516): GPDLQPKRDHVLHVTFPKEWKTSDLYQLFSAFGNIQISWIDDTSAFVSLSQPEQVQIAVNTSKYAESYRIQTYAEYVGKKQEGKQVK
The data set can be described thus: isothermal titration calorimetry.

Data set [2] has as its target T2, PARN RRM (cap-binding domain), NMR/ITC construct (mouse, UniProt Q8VDG3 430-516).
T2 sequence: T1 sequence (Q8VDG3 430-516)
The data set can be described thus: NMR HSQC titration.

In turn, `C[n+]1cn([C@@H]2O[C@H](COP(=O)(O)OP(=O)(O)OP(=O)(O)OC[C@H]3O[C@@H](n4cnc5c(=O)[nH]c(N)nc54)[C@H](O)[C@@H]3O)[C@@H](O)[C@H]2O)c2nc(N)[nH]c(=O)c21` [m7GpppG] showed a Kd in data set [1] of around 45 µM.

Take AAAAAAAAAA (ssRNA) [A10 10-mer poly(A)]: the binding result in data set [2] is listed as “no binding”.
